Patent US11478474B2, “2-(3′-(hydroxymethyl)-1-methyl-5-((5-(2-methyl-4-(oxetan-3-yl)piperazin-1-yl)pyridin-2-yl)amino)-6-oxo-1,6-dihydro-[3,4′-bipyridin]-2′-yl)-7,7-dimethyl-7,8-dihydro-2H-cyclopenta[4,5]pyrrolo[1,2-a]pyrazin-1(6H)-one as a BTK inhibitor” (HUTCHISON MEDIPHARMA LIMITED, priority 2020, dated 2022)

Columns and labels:
[1] = biological target: phosphorylated BTK in Ramos cells (Homo sapiens (Human), UniProt Q06187); assay: Determination of phosphorylated BTK in Ramos cells (BTK phospho-Y223 HTRF); type: cell-based; conditions: anti-human IgM + hydrogen peroxide stimulation
Sequence of phosphorylated BTK in Ramos cells (Q06187 whole entry): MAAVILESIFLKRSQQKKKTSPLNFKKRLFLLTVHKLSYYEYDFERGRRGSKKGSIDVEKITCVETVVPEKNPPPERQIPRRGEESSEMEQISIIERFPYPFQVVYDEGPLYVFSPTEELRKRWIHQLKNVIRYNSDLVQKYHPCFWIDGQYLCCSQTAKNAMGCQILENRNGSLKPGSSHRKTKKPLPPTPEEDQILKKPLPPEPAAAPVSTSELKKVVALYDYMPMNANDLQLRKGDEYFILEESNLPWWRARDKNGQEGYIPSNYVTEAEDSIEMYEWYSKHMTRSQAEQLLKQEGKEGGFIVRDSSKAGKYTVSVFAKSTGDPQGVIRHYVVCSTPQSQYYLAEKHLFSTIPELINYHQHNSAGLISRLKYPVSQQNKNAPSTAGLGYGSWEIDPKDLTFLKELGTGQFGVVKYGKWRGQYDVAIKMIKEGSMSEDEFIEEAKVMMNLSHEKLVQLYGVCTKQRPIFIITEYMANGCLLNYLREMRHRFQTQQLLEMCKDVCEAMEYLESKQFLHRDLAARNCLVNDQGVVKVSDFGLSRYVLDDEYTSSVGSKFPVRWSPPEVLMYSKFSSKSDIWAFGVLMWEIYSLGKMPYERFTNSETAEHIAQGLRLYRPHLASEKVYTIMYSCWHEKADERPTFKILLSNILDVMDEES
In short: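 BTK Y223 phosphorylation measured by HTRF (665/615 nm) in lysates of Ramos cells. Cells were serum-starved 2 h, exposed to compound for 1 h (final 0.00018–3.0 μM, 0.3% DMSO), then stimulated 10 min with 10 μg/mL anti-IgM and 3.3 mM H2O2. IC50 derived from percent inhibition between unstimulated and stimulated controls.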

[2] = test system: B cell activation in rat whole blood; assay: Determination of B cell activity in whole blood of rats (anti-rat IgD induced B cell activation, flow cytometry); type: cell-based; conditions: anti-rat immunoglobulin D 10 μg/mL, 18 hours, inhibition of B cell activation
Method: Example 4 Determination of B Cell Activity in Whole Blood of Rats
1. Reagents and Materials
Peripheral whole blood of female Wistar rats;
In the determination of the compound activity, the collected peripheral whole blood of rat was added to a 96 well plate at 80 μL/well and cultured in a 5% CO2, 37° C. cell incubator. After half an hour, the test compound was diluted with PBS in a 3-fold gradient to the corresponding concentrations, and then the diluted test compound with different concentrations was added to the culture system of rat whole blood at 10 μL/well (the final concentration of the test compound was 1.0, 0.33, 0.11, 0.037, 0.012, 0.0041, 0.0014, and 0.0005 μM, the final concentration of DMSO was 0.3%, double replicate wells), or the control solution (0.3% DMSO, 6 replicate wells) was added to the corresponding well at 10 μL/well, which were incubated in the cell incubator for one hour. Then 10 μL/well of anti-rat immunoglobulin D diluted in PBS (the final concentration was 10 μg/mL) was add to the treating wells of the test compound and control wells for anti-rat immunoglobulin D, or 10 μL/well of PBS was added to the negative control wells, which were mixed well to continue the culture in a 5% CO2, 37° C. cell incubator, and incubated for 18 hours.
On the second day, the 96-well plates were taken out and the flow cytometry antibody mixture (the final concentration of anti-rat B220PE antibody was 1 μg/mL and the final concentration of anti-rat CD86 FITC antibody was 1 μg/mL) diluted with PBS was added to each well of plate, which were incubated for 30 minutes in the dark, and then 50 μL of blood from each well was pipetted to the freshly prepared 500 μL of lysis buffer to lyse red blood cells. The plates were shaken for 20 minutes, centrifuged to remove the supernatant, then washed, fixed, and detected on a flow cytometer.
The B cell activation in the sample was determined by flow dyeing method.
The average value of the proportion of activated B cells in the wells with anti-rat immunoglobulin D but without the test compound was used as the control treating well for anti-rat immunoglobulin D, and the average value of the proportion of activated B cells in the wells without immunoglobulin D stimulation and without the test compound was used as the negative control treating well. According to the B cell activation ratio in each well, the inhibition ratio (%) of each concentration was calculated, and then the IC50 value was obtained by using the 205 model in XL-Fit 5.3 software (ID Business Solutions Limited).
The inhibition ratio is calculated as follows: inhibition ratio (%)=100%−{(treating well for the test compound−negative control treating well)/(control treating well for anti-rat immunoglobulin D−negative control treating well)}×100%, wherein,
Treating well for the test compound: represents the B cell activation ratio in rat whole blood treated with anti-rat immunoglobulin D and the test compound.
Control treating well for anti-rat immunoglobulin D: represents the B cell activation ratio in rat whole blood treated with anti-rat immunoglobulin D but without the test compound.
Negative control treating well: represents the B cell activation ratio in rat whole blood without the test compound and without immunoglobulin stimulation.
Through the above-mentioned test, the compound of the present invention has a potency to inhibit B cell activation in rat whole blood.

Row | Structure (SMILES) | IC50 [1] | IC50 [2]
1 | CC1CCc2cc3c(=O)n(-c4nccc(-c5cc(Nc6ccc(N7CCN(C8COC8)C[C@@H]7C)cn6)c(=O)n(C)c5)c4CO)ccn3c2C1 (mixture of isomers) [Compound 78] | 3 nM | 41 nM
2 | Cn1cc(-c2ccnc(-n3ccn4c5c(cc4c3=O)CC(C)(C)C5)c2CO)cc(Nc2ccc(N3CCN(C4COC4)CC3)cn2)c1=O [Compound 9] | 4 nM | 
3 | C[C@H]1CN(C2COC2)CCN1c1ccc(Nc2cc(-c3ccnc(-n4ccn5c6c(cc5c4=O)CC(C)(C)C6)c3CO)cn(C)c2=O)nc1 [Compound 19] | 4 nM | 3 nM
4 | C[C@H]1CN(C)CCN1c1ccc(Nc2cc(-c3ccnc(-n4ccn5c6c(cc5c4=O)CC(C)(C)C6)c3CO)cn(C)c2=O)nc1 [Compound 26] | 7 nM | 19 nM
5 | Cn1cc(-c2ccnc(-n3ccn4c5c(cc4c3=O)CC(C)(C)C5)c2CO)cc(Nc2cn(CCF)nn2)c1=O [Compound 31] | 6 nM | 93 nM
6 | CN1CCN(C(=O)c2ccc(Nc3cc(-c4ccnc(-n5ccn6c7c(cc6c5=O)CC(C)(C)C7)c4CO)cn(C)c3=O)nc2)CC1 [Compound 48] | 6 nM | 26 nM
7 | C[C@H]1CN(C2COC2)CCN1c1ccc(Nc2cc(-c3ccnc(-n4ccn5c6c(cc5c4=O)CC(C)(C)C6)c3CO)n[nH]c2=O)nc1 [Compound 49] | 1 nM | 10 nM
8 | C[C@H]1CN(C2COC2)CCN1c1ccc(Nc2cc(-c3ccnc(-n4ccn5c6c(cc5c4=O)CCC(F)(F)C6)c3CO)cn(C)c2=O)nc1 [Compound 56] | 24 nM | 
9 | C[C@H]1CN(C2COC2)CCN1c1ccc(Nc2cc(-c3ccnc(-n4ccn5c(c(F)c6ccccc65)c4=O)c3CO)cn(C)c2=O)nc1 [Compound 57] | 3 nM | 21 nM
10 | C[C@H]1CN(C2COC2)CCN1c1ccc(Nc2cc(-c3ccnc(-n4ccn5c6c(cc5c4=O)CC(F)(F)CC6)c3CO)cn(C)c2=O)nc1 [Compound 58] | 4 nM | 6 nM
11 | C[C@H]1CN(C2COC2)CCN1c1ccc(Nc2cc(-c3ccnc(-n4ccn5c(cc6ccccc65)c4=O)c3CO)cn(C)c2=O)nc1 [Compound 74] | 11 nM | 
12 | C[C@H]1CN(C2COC2)CCN1c1ccc(Nc2cc(-c3ccnc(-n4ccn5c(cc6cc(F)ccc65)c4=O)c3CO)cn(C)c2=O)nc1 [Compound 75] | 7 nM | 85 nM

The remaining compounds from weak to strong by IC50 [1], led by results:

Row | IC50 [1] | IC50 [2] | Structure (SMILES)
13 | 30 nM | 277 nM | C[C@H]1CN(C2COC2)CCN1c1ccc(Nc2cc(-c3ccnc(-n4ccn5c6c(cc5c4=O)CC(C)(C)C6)c3CO)cn3c(F)cnc23)nc1 [Compound 23]
14 | 18 nM | 34 nM | C[C@H]1CN(C2COC2)CCN1c1ccc(Nc2cc(-c3ccnc(-n4ccn5c6c(cc5c4=O)CC(C)(C)C6)c3CO)nn(C)c2=O)nc1 [Compound 22]
15 | 18 nM |  | C[C@H]1CN(C2COC2)CCN1c1cnc(Nc2cc(-c3ccnc(-n4ccn5c6c(cc5c4=O)CC(C)(C)C6)c3CO)cn(C)c2=O)nc1 [Compound 44]
16 | 15 nM | 24 nM | C[C@H]1CN(C2COC2)CCN1c1ccc(Nc2cc(-c3ccnc(-n4ccn5c6c(cc5c4=O)CC(C)(C)C6)c3CO)cn3ncnc23)nc1 [Compound 21]
17 | 10 nM | 54 nM | C[C@@H]1CN(c2ccc(Nc3cc(-c4ccnc(-n5ccn6c7c(cc6c5=O)CCC7)c4CO)cn(C)c3=O)nc2)[C@@H](C)CN1C1COC1 [Compound 2, 2-(5-((5-((2S,5R)-2,5-dimethyl-4-(oxetan-3-yl)piperazin-1-yl)pyridin-2-yl)amino)-3′-(hydroxymethyl)-1-methyl-6-oxo-1,6-dihydro-[3,4′-bispyridin]-2′-yl)-7,8-dihydro-2H-cyclopenta[4,5]pyrrolo[1,2-a]pyrazin-1(6H)-one]
18 | 10 nM | 52 nM | C[C@H]1CN(C2COC2)CCN1c1ccc(Nc2cc(-c3ccnc(-n4ccn5c6c(cc5c4=O)CCC6)c3CO)cn(C)c2=O)nc1 [Compound 64]
19 | 6 nM | 92 nM | CCn1cc(Nc2cc(-c3ccnc(-n4ccn5c6c(cc5c4=O)CC(C)(C)C6)c3CO)cn3ncnc23)nn1 [Compound 71]
20 | 5 nM | 44 nM | C[C@H]1CN(C2COC2)CCN1c1ccc(Nc2cc(-c3ccnc(-n4cnn5c6c(cc5c4=O)CC(C)(C)C6)c3CO)cn(C)c2=O)nc1 [Compound 63]
21 | 3 nM | 34 nM | C[C@H]1CN(C2COC2)CCN1c1ccc(Nc2cc(-c3ccnc(-n4ccn5c(c(F)c6cc(F)ccc65)c4=O)c3CO)cn(C)c2=O)nc1 [Compound 60]
22 | 2 nM | 17 nM | COCCN1CCN(c2ccc(Nc3cc(-c4ccnc(-n5ccn6c7c(cc6c5=O)CC(C)(C)C7)c4CO)cn(C)c3=O)nc2)[C@@H](C)C1 [Compound 8]
23 | 2 nM | 78 nM | Cn1cc(Nc2cc(-c3ccnc(-n4ccn5c6c(cc5c4=O)CC(C)(C)C6)c3CO)cn(C)c2=O)nn1 [Compound 28]
24 | 2 nM | 52 nM | C[C@H]1CN(C2COC2)CCN1c1cnc(Nc2cc(-c3ccnc(-n4ccn5c6c(cc5c4=O)CC(C)(C)C6)c3CO)cn(C)c2=O)cn1 [Compound 43]
25 | 2 nM | 84 nM | COCCN(C)c1ccc(Nc2cc(-c3ccnc(-n4ccn5c6c(cc5c4=O)CC(C)(C)C6)c3CO)cn(C)c2=O)nc1 [Compound 50]
26 | 2 nM | 6 nM | C[C@H]1CN(C2COC2)CCN1c1ccc(Nc2cc(-c3ccnc(-n4ncn5c6c(cc5c4=O)CC(C)(C)C6)c3CO)cn(C)c2=O)nc1 [Compound 79]
27 | 1 nM | 5 nM | C[C@@H]1CN(c2ccc(Nc3cc(-c4ccnc(-n5ccn6c7c(cc6c5=O)CC(C)(C)C7)c4CO)cn(C)c3=O)nc2)[C@@H](C)CN1C1COC1 [Compound 27]
28 | 1 nM | 19 nM | C[C@@H]1CN(c2ccc(Nc3cc(-c4ccnc(-n5ccn6c(c(F)c7ccccc76)c5=O)c4CO)cn(C)c3=O)nc2)[C@@H](C)CN1C1COC1 [Compound 59]
